Data published in the supplement of paper PMC10307832.

Experiments:
Assay in all cases: relative viability (nuclei count vs DMSO), 5 days (fraction); higher = more cells survive
A-427 = system: A-427
Procedure, shortened: (§1)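 A single step with final 0.05% Triton X-100, 1% formaldehyde and 1 ug/ml Hoechst fixed the cells and stained nuclei 5 days after treatment. Lung cancer cell lines in 1536-well plates had been treated by pin tool the day after seeding with one drug alone or a fixed anchor-drug dose plus five library-drug doses (not always all listed) in √10 steps, and nuclei were counted on 4× images. Relative viability is the ratio of nuclei in treated wells to nuclei in vehicle wells, taken as the median of duplicate plates.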

ABC-1 = system: ABC-1
Procedure, shortened: as §1

CAL-12T = system: CAL-12T
Procedure, shortened: as §1

H3255 = system: H3255
Procedure, shortened: as §1

LCLC-97TM1 = system: LCLC-97TM1
Procedure, shortened: as §1

LK-2 = system: LK-2
Procedure, shortened: as §1

NCI-H1355 = system: NCI-H1355
Procedure, shortened: as §1

NCI-H1395 = system: NCI-H1395
Procedure, shortened: as §1

NCI-H1651 = system: NCI-H1651
Procedure, shortened: as §1

NCI-H1666 = system: NCI-H1666
Procedure, shortened: as §1

NCI-H1915 = system: NCI-H1915
Procedure, shortened: as §1

NCI-H2085 = system: NCI-H2085
Procedure, shortened: as §1

NCI-H2087 = system: NCI-H2087
Procedure, shortened: as §1

NCI-H2228 = system: NCI-H2228
Procedure, shortened: as §1

NCI-H322M = system: NCI-H322M
Procedure, shortened: as §1

NCI-H358 = system: NCI-H358
Procedure, shortened: as §1

NCI-H661 = system: NCI-H661
Procedure, shortened: as §1

NCI-H838 = system: NCI-H838
Procedure, shortened: as §1

PC-14 = system: PC-14
Procedure, shortened: as §1

PC-3 [JPC-3] = system: PC-3 [JPC-3]
Procedure, shortened: as §1

SK-MES-1 = system: SK-MES-1
Procedure, shortened: as §1

UMC-11 = system: UMC-11
Procedure, shortened: as §1

## O=c1[nH]c2ccccc2n1C1CCN(CCCC(c2ccc(F)cc2)c2ccc(F)cc2)CC1 [Pimozide] + Cc1cc(Nc2cc(N3CCN(C)CC3)nc(Sc3ccc(NC(=O)C4CC4)cc3)n2)n[nH]1 [Tozasertib] (partner 0.1 µM)
A-427; first compound 0.08 µM
  relative viability: 0.194
A-427; first compound 0.253 µM
  relative viability: 0.189
A-427; first compound 0.8 µM
  relative viability: 0.222
A-427; first compound 2.53 µM
  relative viability: 0.16
A-427; first compound 8 µM
  relative viability: 0.208
ABC-1; first compound 0.08 µM
  relative viability: 0.213
ABC-1; first compound 0.253 µM
  relative viability: 0.214
ABC-1; first compound 0.8 µM
  relative viability: 0.184
ABC-1; first compound 2.53 µM
  relative viability: 0.178
ABC-1; first compound 8 µM
  relative viability: 0.203
CAL-12T; first compound 0.08 µM
  relative viability: 0.308
CAL-12T; first compound 0.253 µM
  relative viability: 0.312
CAL-12T; first compound 0.8 µM
  relative viability: 0.308
CAL-12T; first compound 2.53 µM
  relative viability: 0.318
CAL-12T; first compound 8 µM
  relative viability: 0.427
H3255; first compound 0.253 µM
  relative viability: 0.592
H3255; first compound 0.8 µM
  relative viability: 0.47
H3255; first compound 2.53 µM
  relative viability: 0.584
H3255; first compound 8 µM
  relative viability: 0.659
LCLC-97TM1; first compound 0.08 µM
  relative viability: 0.265
LCLC-97TM1; first compound 0.253 µM
  relative viability: 0.212
LCLC-97TM1; first compound 0.8 µM
  relative viability: 0.225
LCLC-97TM1; first compound 2.53 µM
  relative viability: 0.173
LCLC-97TM1; first compound 8 µM
  relative viability: 0.193
LK-2; first compound 0.08 µM
  relative viability: 0.173
LK-2; first compound 0.253 µM
  relative viability: 0.178
LK-2; first compound 2.53 µM
  relative viability: 0.167
LK-2; first compound 8 µM
  relative viability: 0.171
NCI-H1355; first compound 0.08 µM
  relative viability: 0.569
NCI-H1355; first compound 0.253 µM
  relative viability: 0.534
NCI-H1355; first compound 0.8 µM
  relative viability: 0.462
NCI-H1355; first compound 2.53 µM
  relative viability: 0.376
NCI-H1355; first compound 8 µM
  relative viability: 0.414
NCI-H1395; first compound 0.08 µM
  relative viability: 0.846
NCI-H1395; first compound 0.253 µM
  relative viability: 0.8
NCI-H1395; first compound 0.8 µM
  relative viability: 0.617
NCI-H1395; first compound 2.53 µM
  relative viability: 0.716
NCI-H1395; first compound 8 µM
  relative viability: 0.676
NCI-H1651; first compound 0.08 µM
  relative viability: 0.618
NCI-H1651; first compound 0.253 µM
  relative viability: 0.697
NCI-H1651; first compound 0.8 µM
  relative viability: 0.655
NCI-H1651; first compound 2.53 µM
  relative viability: 0.611
NCI-H1651; first compound 8 µM
  relative viability: 0.567
NCI-H1666; first compound 0.08 µM
  relative viability: 0.628
NCI-H1666; first compound 0.253 µM
  relative viability: 0.571
NCI-H1666; first compound 0.8 µM
  relative viability: 0.648
NCI-H1666; first compound 2.53 µM
  relative viability: 0.559
NCI-H1666; first compound 8 µM
  relative viability: 0.476
NCI-H1915; first compound 0.08 µM
  relative viability: 0.445
NCI-H1915; first compound 0.253 µM
  relative viability: 0.383
NCI-H1915; first compound 0.8 µM
  relative viability: 0.332
NCI-H1915; first compound 2.53 µM
  relative viability: 0.321
NCI-H1915; first compound 8 µM
  relative viability: 0.368
NCI-H2085; first compound 0.08 µM
  relative viability: 0.793
NCI-H2085; first compound 0.253 µM
  relative viability: 0.82
NCI-H2085; first compound 0.8 µM
  relative viability: 0.704
NCI-H2085; first compound 2.53 µM
  relative viability: 0.844
NCI-H2085; first compound 8 µM
  relative viability: 0.736
NCI-H2087; first compound 0.08 µM
  relative viability: 0.262
NCI-H2087; first compound 0.253 µM
  relative viability: 0.232
NCI-H2087; first compound 2.53 µM
  relative viability: 0.233
NCI-H2087; first compound 8 µM
  relative viability: 0.195
NCI-H2228; first compound 0.08 µM
  relative viability: 0.263
NCI-H2228; first compound 0.253 µM
  relative viability: 0.262
NCI-H2228; first compound 0.8 µM
  relative viability: 0.308
NCI-H2228; first compound 2.53 µM
  relative viability: 0.172
NCI-H2228; first compound 8 µM
  relative viability: 0.148
NCI-H322M; first compound 0.253 µM
  relative viability: 0.51
NCI-H322M; first compound 0.8 µM
  relative viability: 0.523
NCI-H322M; first compound 2.53 µM
  relative viability: 0.515
NCI-H322M; first compound 8 µM
  relative viability: 0.425
NCI-H358; first compound 0.08 µM
  relative viability: 0.0997
NCI-H358; first compound 0.253 µM
  relative viability: 0.11
NCI-H358; first compound 0.8 µM
  relative viability: 0.112
NCI-H358; first compound 2.53 µM
  relative viability: 0.108
NCI-H358; first compound 8 µM
  relative viability: 0.106
NCI-H661; first compound 0.08 µM
  relative viability: 0.354
NCI-H661; first compound 0.253 µM
  relative viability: 0.376
NCI-H661; first compound 0.8 µM
  relative viability: 0.339
NCI-H661; first compound 2.53 µM
  relative viability: 0.35
NCI-H661; first compound 8 µM
  relative viability: 0.316
NCI-H838; first compound 0.08 µM
  relative viability: 0.271
NCI-H838; first compound 0.253 µM
  relative viability: 0.287
NCI-H838; first compound 0.8 µM
  relative viability: 0.31
NCI-H838; first compound 2.53 µM
  relative viability: 0.276
NCI-H838; first compound 8 µM
  relative viability: 0.323
PC-14; first compound 0.253 µM
  relative viability: 0.539
PC-14; first compound 0.8 µM
  relative viability: 0.481
PC-14; first compound 2.53 µM
  relative viability: 0.519
PC-14; first compound 8 µM
  relative viability: 0.552
PC-3 [JPC-3]; first compound 0.08 µM
  relative viability: 0.557
PC-3 [JPC-3]; first compound 0.253 µM
  relative viability: 0.875
PC-3 [JPC-3]; first compound 0.8 µM
  relative viability: 0.754
PC-3 [JPC-3]; first compound 2.53 µM
  relative viability: 0.771
PC-3 [JPC-3]; first compound 8 µM
  relative viability: 0.788
SK-MES-1; first compound 0.08 µM
  relative viability: 0.821
SK-MES-1; first compound 0.253 µM
  relative viability: 0.822
SK-MES-1; first compound 0.8 µM
  relative viability: 0.873
SK-MES-1; first compound 2.53 µM
  relative viability: 0.824
SK-MES-1; first compound 8 µM
  relative viability: 0.815
UMC-11; first compound 0.08 µM
  relative viability: 0.188
UMC-11; first compound 0.253 µM
  relative viability: 0.201
UMC-11; first compound 0.8 µM
  relative viability: 0.205
UMC-11; first compound 2.53 µM
  relative viability: 0.205
UMC-11; first compound 8 µM
  relative viability: 0.205
